Assay results taken from publication PMC2823129 (Lipids, 2009).

Tested on: mitochondrial GPAT (GPAT1-like)
Assay: […]glycerol-3-phosphate incorporation into organic phase, liquid scintillation
Format: biochemical, Macrobrachium borellii
Conditions: read-out: apparent Km; mitochondrial fraction; 0.8 mM glycerol-3-phosphate, 4 mM MgCl2, 2 mg/ml BSA, 8 mM NaF, 1 mM DTT, 75 mM Tris-HCl pH 7.4, 30°C

Km: 31.2 µM
SMILES: CCCCCCCC/C=C\CCCCCCCC(=O)SCCNC(=O)CCNC(=O)[C@H](O)C(C)(C)COP(=O)(O)OP(=O)(O)OC[C@H]1O[C@@H](n2cnc3c(N)ncnc32)[C@H](O)[C@@H]1OP(=O)(O)O [oleoyl-CoA]
